The record followed here is patent US10723813B2, “PDGF-B /PDGF-BB binding variants of heparan sulfates” (Agency for Science, Technology and Research, priority 2015, dated 2020).

“Also recorded” adds a separate entry of the source.

Holding throughout (assay type): cell-based
The test system of data set [1] is human dermal fibroblasts (HDFs). The data set is described as follows: In vitro proliferation of HDFs (Example 15), with or without PDGFR/FGFR1 inhibitors. The conditions noted are these: FIG. 30. As for the experimental part: FIG. 29. Charts showing proliferative effect of PDGF-BB and HS6 on human dermal fibroblasts: (A) PDGF-BB (1, 2.5, 5, 10, 25 ng/ml), (B) HS6 (0.25, 0.5, 1, 2.5, 5, 10, 25 μg HS6), (C) 2.5 ng PDGF-BB+HS6 (0, 0.25, 0.5, 1, 2.5, 5, 10, 25 μg).
FIG. 30. Charts showing effect of PDGFR and FGFR inhibition. (A) Effect of PDGFR inhibitor JNJ-10198409; (B) Effect of FGFR1 inhibitor SU5402.

Data set [2] deals with human dermal fibroblast (HDF). The data set is described as follows: HDF migration scratch assay (IncuCyte). On the procedure: Migration Protocol: • 1. Seed 10,000 HDF per well in maintenance media, into a 96 well ImageLock plate. • 2. After 24 hrs, change media to 1% α-MEM • 3. Once cells are confluent, scratch the surface using the wound maker and wash once with PBS. • 4. Add 100 μl of treatment media into each well and place plate into IncuCyte and run for 40 hours. • 5. Program is set up to take photo every 2 hours. Results:
The migration protocol from Example 11 was followed using a range of HS6+ doses (20 μg/mL, 40 μg/mL, 60 μg/mL) with 5 ng/ml PDGF-BB.

For data set [3], the system named is human N-TERT/1 keratinocytes. The data set is described as follows: Scratch wound assay on keratinocytes. The conditions noted are these: confluent N-TERT/1, IncuCyte; increasing amounts (FIG. 31).
Data set [4] has as its system human dermal fibroblast (HDF). In words: HDF proliferation (Guava Viacount, 72 hrs). As for the experimental part:
Proliferation Protocol: • 1. Thaw human dermal fibroblast (HDF, Cascade Biologics) into a T75 in maintenance medium at 5×10^3 cells/cm^2 (α-MEM, 10% FCS, P/S) at 37° C. 5% CO^2 humidified incubator. • 2. At 70-80% confluence, wash cells in PBS twice, add 1 ml of 0.125% trypsin and incubate for 3 mins. Tap the dish and stop the trypsin by adding 5 ml of medium. Centrifuge cells down at 180 g for 7 mins. • 3. Count total number of cells. • 4. Seed cells at 500 μl of 3000 cells/cm^2 cell suspension per well and place the plates into the incubator for 24 hrs. • 5. Change media to α-MEM, 1% FCS, P/S media for 24 hrs. • 6. Treat cells with PDGF-BB and HS fractions. • 7. After 72 hrs, wash cells with PBS and add 100 ul of trypsin, incubate for 3 mins. • 8. Add 100 ul of Guava Viacount dye mastermix into each well of trypsinize cells. • 9. Transfer total volume of 200 ul of cells per well into a 96 well Guava plate. Results:
The proliferation protocol described in Example 9 was used.

For `COc1cc2c(cc1OC)-c1[nH]nc(Nc3cccc(F)c3)c1C2` [JNJ-10198409], the “Stimulation of proliferation in the presence of inhibitor” value in data set [1] is recorded as “very strongly inhibited”.
`Cc1c[nH]c(/C=C2\C(=O)Nc3ccccc32)c1CCC(=O)O` [SU5402]: the “Stimulation of proliferation in the presence of inhibitor” value in data set [1] is reported as “also inhibited—but not as strongly”.
Consider “PDGF-BB: homodimer of platelet-derived growth factor B; recombinant (R&D)”, for which, in data set [2], the “PDGF-BB concentration up to which rate of wound closure increases” value is recorded as “up to 10 ng/mL” and the “Rate of closure at more than 10 ng/mL PDGF-BB” value was “does not speed up the rate of closure”. In addition, the “HDF migration, PDGF-BB dosing” value in data set [2] (PDGF-BB alone) is given as “induces HDF migration”. For the same molecule, the “Closure of the scratch wound, keratinocytes” value in data set [3] was “able to improve the closure”. Also, the “HDF proliferation, dosing” value in data set [4] (72 hrs, increasing concentration of the substance) was “dose dependently increase HDF proliferation; also recorded: dose dependent increase in proliferation”. The “Optimal concentration for proliferation” value in data set [4] (HDF, 72 hrs) was determined as 10 ng/mL. For the same molecule, the “Viability of HDF” value in data set [4] (higher concentration of PDGF-BB) is recorded as “decreased viability”.
